Earlier results as cited in patent US8568779B2, “Method for producing coenzyme Q10 particle” (Kaneka Corporation, priority 2007, dated 2013).

Conditions: composition containing reduced coenzyme Q10 versus oxidized coenzyme Q10 alone

COc1c(O)c(C)c(C/C=C(\C)CC/C=C(\C)CC/C=C(\C)CC/C=C(\C)CC/C=C(\C)CC/C=C(\C)CC/C=C(\C)CC/C=C(\C)CC/C=C(\C)CCC=C(C)C)c(O)c1OC [reduced coenzyme Q10]
oral absorbability: superior to conventional oxidized coenzyme Q10 alone
